Assay results from US11883430B2, “CD38-NAD+ regulated metabolic axis in anti-tumor immunotherapy” (MUSC FOUNDATION FOR RESEARCH DEVELOPMENT, priority 2016, dated 2024).

Columns and labels:
[1] = tested on: Th1/17 cells; assay: Intracellular cytokine (IFNγ, IL17) flow cytometry after PMA and ionomycin; type: cell-based, mouse; details: WT T cells programmed in presence of Ex527; sentence says both Th17 and Th1/17 cells (FIG. 12A)
Excerpt: T cell differentiation: Naïve CD4^+ T cells were purified from the total splenocytes of 6-9 weeks old WT (C57BL/6) and KO (Foxo1^fl/flLck^cre, Sirt1^fl/flCD4^cre, CD38KO) mice using CD4^+ T cell isolation kit (Miltenyi Biotec) according to manufacturer's protocol. Total splenocytes from 6-9 weeks old TCR transgenic mouse TRP-1 (bears class-II restricted CD4^+ T cells) or Pmel (bears class-I restricted CD8^+ T cells) or TCR-I (bears class-I restricted CD8^+ T cells) were also used. Within experiments mice were age and sex matched. Purified naïve CD4^+ T cells or total splenocytes were differentiated to Th1 or Tc1 (10 ng/ml IL12, 50 U/ml IL2 and 10 μg/ml anti-IL4), Th17 or Tc17 (3 ng/ml TGFβ, 25 ng/ml IL6, 10 μg/ml anti-IL4 and 10 μg/ml anti-IFNγ), Th1/17 or Tc1/17 (20 ng/ml IL1β, 25 ng/ml IL6, 10 ng/ml IL12, 20 ng/ml IL23, 400 pg/ml TGFβ, 10 μg/ml anti-IL4, 5 μg/ml anti-IFNγ), iTreg (5 ng/ml TGFβ, 100 IU/ml IL2, 10 μg/ml anti-IL4 and 10 μg/ml anti-IFNγ or Th0 (50 IU/ml IL2) in presence of plate bound anti-CD3 (5 μg/ml) and anti-CD28 (5 μg/ml). For TRP-1, gp100 or Sv40 specific generation of different Th or Tc subsets, total splenocytes from either TRP-1, Pmel or TCR-I TCR transgenic mice were stimulated with 1 μg/ml respective peptides in presence of above-mentioned polarizing conditions. T cells were differentiated for three days in IMDM media supplemented with 10% FCS, 4 mM L-glutamine, 100 U/ml penicillin, 100 μg/ml streptomycin, 55 μM beta-mercaptoethanol under 7% CO2, atmospheric oxygen at 37° C. in a humidified incubator. For evaluation of intracellular cytokines by flow cytometry, T cells were re-stimulated with PMA (500 ng/ml) and Ionomycin (500 ng/ml) for 4 hr in presence of Glogi inhibitors. […]
Flow cytometry: Staining for cell surface markers was performed by incubating cells with antibody at 1:200 dilutions in FACS buffer (0.1% BSA in PBS) for 30 min at 4° C. […] Samples were acquired on LSRFortessa and analysed with FlowJo software (Tree Star, OR).

[2] = tested on: Th1 cells; assay: as above; type: cell-based, mouse; details: Th1 subsets (FIGS. 12A and 12B)
Protocol: FIGS. 12A-12D: Loss of Sirt1 expression and NAD+ levels on Th1/17 cell phenotype and function (see FIG. 5). (A) Purified CD4^+ T cells from C57BL/6 were used to differentiate to Th1/17 cells either alone or in the presence of Ex527, a pharmacological inhibitor of Sirt1. Cells were then restimulated with PMA and ionomycin for 4 hr in presence of golgi block to stain for intracellular accumulation of cytokines IFNγ and IL17. (B) Th1 cells were cultured either in presence or absence of NAD+ inhibitor FK866 (10 nM) and intracellular staining was performed for IFNγ and IL17. Data was acquired using FACS and analysis was carried out using FlowJo software. (C-D) Purified splenic CD4^+ T cells from either C57BL/6 WT or Sirt1fl/flCD4Cre (Sirt1KO) mouse were used to ex vivo program for Th1/17 cells. RNA was prepared and quantitative PCR analysis was performed for the expression of various glycolysis (C) and glutaminolysis (D) associated genes in either WT or Sirt1KO Th1/17 cells. Data in section A-D are representative of three independent experiments.
T cell differentiation: Naïve CD4^+ T cells were purified from the total splenocytes of 6-9 weeks old WT (C57BL/6) and KO (Foxo1^fl/flLck^cre, Sirt1^fl/flCD4^cre, CD38KO) mice using CD4^+ T cell isolation kit (Miltenyi Biotec) according to manufacturer's protocol. […]

[3] = tested on: B16-F10-HLA-A2+ murine melanoma; assay: Adoptive T cell transfer, s.c. B16-F10-HLA-A2+ melanoma, tumor growth; type: in vivo, mouse; details: Th1/17 differentiated ex vivo with FK866 or Ex527 vs untreated/vehicle (FIGS. 4E, 5F)
[4] = tested on: Th1/17 cells; assay: qPCR gene expression in Th1/17 cells; type: cell-based, mouse; details: Th1/17 differentiated with FK866 10 nM or Ex527 (FIGS. 4D, 5D)
Protocol: Real-time quantitative-PCR: Total RNA was extracted from pellets of the indicated T cell subsets (2×10^6 cells) using Trizol reagent (Life technologies, Grand Island, NY). cDNA was generated from 1 μg total RNA using iScript cDNA Synthesis Kit (BioRad, Hercules, CA). SYBR Green incorporation quantitative real-time PCR was performed using a SYBR Green mix (Biorad, Hercules, CA) in the CFX96 Detection System (BioRad, Hercules, CA). Expression of different genes was quantified relative to Actb.

[5] = tested on: NAD+; assay: Intracellular NAD+ level; type: cell-based, mouse; details: Th1/17 differentiated with 2DG 1 mM, DON 3 μM or FK866 10 nM (FIGS. 11K, 11L)
Protocol: NAD^+, Sirt1 activity and Foxo1 activity assay: Intracellular NAD^+ level in T cells were measured spectrophotometrically following the manufacturer's protocol (Cayman chemical, Ann Arbor, MI). Using equal amounts of nuclear protein extracted by NE-PER Nuclear and Cytoplasmic Extraction Reagents (Thermo Fisher Scientific, Waltham, MA), Sirt1 activity (Universal Sirt1 Activity Assay Kit, Abcam, Cambridge, MA) and Foxo1 activity (FKHR transcription Factor Assay Kit, Active Motif, Carlsbad, CA) were determined as per manufacturer's protocol.

[6] = tested on: Th1 cells; assay: Seahorse oxygen consumption rate with etomoxir; type: cell-based, mouse; details: etomoxir 200 μM (FIG. 3J)
Excerpt: (§1) FIGS. 3A-3P: Hybrid Th1/17 cells are metabolically distinct from Th1 and Th17 cells and depend upon glutaminolysis. The ex vivo programmed Th1, Th17 and Th1/17 cells were used to determine: (A) Glucose uptake using 2NBDG. Adjacent bar diagram represents the cumulative data of mean fluorescence intensity (MFI) from three independent experiments. (B) ECAR time course in response to glucose, oligomycin and 2DG (left panel). […] (C) Intracellular expression of GAPDH by FACS. Adjacent bar represents cumulative data from 3 experiments. (D) Glycolysis associated genes using qPCR. Genes including Glut1, HKI, HKII, Pfkb1, Pkm2, and LdhA are lower in Th1/Th17 while Pfkb3 and Pgam 1 are higher. (E-G) Oxygen consumption rate (OCR) under basal condition and in response to indicated mitochondrial inhibitors. Graphs representing time course (E), basal OCR (F), and OCR/ECAR ratio (G). (H) Expression of CTP1a using qPCR. […] (M) Uptake of radiolabelled glutamine that was measured in count per minute (CPM). […] (P) TRP-1 Th1/17 cells differentiated either in presence of vehicle control (DMSO) or DON (3 μM) were adoptively transferred (0.5×10^6) in 9 days s.c. established B16-F10 melanoma tumor bearing mice and tumor growth was measured. […]
(§2) Oxygen consumption rate (OCR) and Extracellular acidification rate (ECAR) was determined using Seahorse Xfe96 analyser (Agilent Technologies, Santa Clara, CA). […] OCR, a measure of OXPHOS, was analysed under basal condition or in response to 200 μM Etomoxir (Sigma-Aldrich, St. Louis, MO) followed by 1.0 μM oligomycin (Sigma-Aldrich, St. Louis, MO), 1.0 μM fluoro-carbonyl cyanide phenylhydrazone (FCCP) (Sigma-Aldrich, St. Louis, MO) and 2 μM rotenone (Sigma-Aldrich, St. Louis, MO) plus 100 nM antimycin A (Sigma-Aldrich, St. Louis, MO). ECAR, a measure of glycolysis was measured under basal conditions and in response to glucose (5.5 mM), Oligomycin (1.0 μM), 2-deoxyglucose (2-DG) (100 mM) (Sigma-Aldrich, St. Louis, MO).

[7] = tested on: Th1/17 cells; assay: Seahorse oxygen consumption rate with etomoxir; type: cell-based, mouse; details: etomoxir 200 μM (FIG. 3K)
Excerpt: as §1, §2

[8] = tested on: Th17 cells; assay: Seahorse oxygen consumption rate with etomoxir; type: cell-based, mouse; details: etomoxir 200 μM (FIG. 3I)
Excerpt: as §1, §2

SMILES: NC(=O)C1CCCc2c1[nH]c1ccc(Cl)cc21 (centres unmarked) [Ex527]
- frequency of IL17+ population [1]: decreased frequency of IL17^+ population
- IFNγ secreting fraction [2]: No significant difference
- tumor control by inhibitor-treated Th1/17 cells upon adoptive transfer [3]: reduced ability to control tumor growth as compared to the vehicle treated cells
- expression of stemness-associated genes [4]: markedly reduced

SMILES: O=CC[C@@H](O)[C@H](O)[C@H](O)CO [2DG, 2-Deoxy-D-glucose]
- NAD+ levels in Th1/17 cells [5]: increased the NAD^+ level in Th1/17 cells

SMILES: CCOC(=O)[C@@]1(CCCCCCOc2ccc(Cl)cc2)CO1 [etomoxir]
- OXPHOS [6]: mostly unaffected
- OXPHOS [7]: mostly unaffected
- OCR and SRC values [8]: significantly depleted OCR and SRC values
